Results reported in patent publication US11753409B2, “Crystalline salts of a B-RAF kinase inhibitor” (Xynomic Pharmaceuticals, Inc., priority 2017, dated 2023).
“Also recorded” adds a separate entry of the source.

Assays:
Assay type in all cases: physicochemical
[1] = Equilibrium solubility of Form A in water
Procedure: Equilibrium solubility of Form A in water was measured at room temperature. The solid was suspended into H2O (˜800 rpm) at rt. After 24 h., the suspension was centrifuged (10000 rpm, 5 min) followed by filtration (0.45 μm PTFE membrane). The supernatant (first few drops were discarded) was analyzed by HPLC and the pH was measured. The residual solid was analyzed by XRPD.

[2] = Solid state stability evaluation
Procedure: Samples of Form A of N-(3-(5-((1-ethylpiperidin-4-yl)(methyl)amino)-3-(pyrimidin-5-yl)-1H-pyrrolo[3,2-b]pyridin-1-yl)-2,4-difluorophenyl)propane-1-sulfonamide monosuccinate salt were stored under at 80° C. for one day, at 25° C. under 60% RH and at 40° C. under 75% RH for one week.

[3] = DVS isotherm of Form A (hygroscopicity)
Procedure: DVS was measured via a SMS (Surface Measurement Systems) DVS Intrinsic. The relative humidity at 25° C. was calibrated against the deliquescence point of LiCl, Mg(NO3)2 and KCl.
To investigate the solid form stability as a function of humidity, a DVS isotherm plot of Form A of N-(3-(5-((1-ethylpiperidin-4-yl)(methyl)amino)-3-(pyrimidin-5-yl)-1H-pyrrolo[3,2-b]pyridin-1-yl)-2,4-difluorophenyl)propane-1-sulfonamide monosuccinate salt was collected at 25° C. between 0 and 95% RH.

[4] = 25 ° C., 60% RH/1 week (second condition column)
[5] = 25 ° C., 60% RH/1 week (third condition column)

## CCCS(=O)(=O)Nc1ccc(F)c(-n2cc(-c3cncnc3)c3nc(N(C)C4CCN(CC)CC4)ccc32)c1F.O=C(O)CCC(=O)O [Monosuccinate Salt, N-(3-(5-((1-Ethylpiperidin-4-yl)(methyl)amino)-3-(pyrimidin-5-yl)-1H-pyrrolo[3,2-b]pyridin-1-yl)-2,4-difluorophenyl)propane-1-sulfonamide monosuccinate salt]
[1]; rt, 24 h, listed as Form A, monosuccinate salt
  Form change during equilibrium solubility testing (XRPD): no form change; also recorded: does not change
[1]; thermodynamic from solid, room temperature, HPLC
  solubility thermodynamic at 24 h: 14.3 mg/mL
[2]; [4]
  Form Change: No
  Purity (% of Initial): 100.0 % of Initial
[2]; [5]
  Form Change: No
  Purity (% of Initial): 100.1 % of Initial
[2]; 80% C/1 day
  Form Change: No
  Purity (% of Initial): 99.9 % of Initial
[2]; any of the storage conditions
  Solid state stability, form change or HPLC purity decrease: No form change or HPLC purity decrease were observed
[3]; 25° C./80% RH
  Water uptake (DVS): 0.14%
[3]; DVS at 25° C., 0 to 95% RH, listed as Form A, monosuccinate salt
  Hygroscopicity: non-hygroscopic; also recorded: low hygroscopicity
[3]; listed as Form A, monosuccinate salt
  Form change after DVS testing (XRPD): did not result in any form change; also recorded: does not change form
